The source of these data is patent US8426408B2, “Pyrimidine inhibitors of kinases” (AbbVie Inc., priority 2009, dated 2013).

Molecules are shown by their SMILES.

One test has as its target T1, Aurora A (Homo sapiens, UniProt O14965).
T1 sequence (O14965 1-403): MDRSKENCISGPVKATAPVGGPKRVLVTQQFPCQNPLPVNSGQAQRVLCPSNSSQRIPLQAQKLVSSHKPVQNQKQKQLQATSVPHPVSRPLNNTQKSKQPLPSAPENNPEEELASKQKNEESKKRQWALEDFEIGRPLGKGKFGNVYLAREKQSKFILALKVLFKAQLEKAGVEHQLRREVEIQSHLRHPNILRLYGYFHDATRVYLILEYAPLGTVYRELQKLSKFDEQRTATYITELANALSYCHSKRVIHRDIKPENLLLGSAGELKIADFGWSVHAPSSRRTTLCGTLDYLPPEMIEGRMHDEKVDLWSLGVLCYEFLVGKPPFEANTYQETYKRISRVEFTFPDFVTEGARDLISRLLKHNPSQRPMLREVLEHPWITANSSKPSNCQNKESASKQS
Nature of the test: Aurora A enzyme inhibition (time-resolved fluorescence, STK substrate-2). The test is classed as biochemical. The note with it: 1 mM ATP. The essentials:
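Phosphorylation of biotinylated STK substrate-2 at 1 mM ATP, 1 h, Hepes buffer pH 7.4 (MgCl2, sodium orthovanadate, Triton X-100). After EDTA quench, 665/615 nm time-resolved fluorescence ratio read via europium anti-phospho antibody and SA-XL665; IC50 from exponential fit versus inhibitor concentration.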

The next test deals with KDR (Homo sapiens, UniProt P35968). As to the kind of experiment: KDR HTRF in vitro kinase assay. It is filed as biochemical. On the set-up: purified enzyme (His6-KDR 789-1354, MW 63 kD); His6 (N). Particulars: 1 mM ATP; read-out: KDR enzyme inhibition data (Ki). The essentials:
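His6-KDR 789-1354 (7 ng/well) with 0.5 μM biotinylated peptide substrate and 1 mM ATP in HEPES pH 7.1, MgCl2/MnCl2, 60 min at room temperature. EDTA-quenched, detected by streptavidin-XL-665 plus Eu-kryptate anti-phosphotyrosine HTRF after 3 h; IC50 from 620/665 nm ratio.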
In general terms: Time-resolved FRET reads energy transfer from a long-lived donor to a nearby acceptor.

Chain of KDR (P35968 789-1354): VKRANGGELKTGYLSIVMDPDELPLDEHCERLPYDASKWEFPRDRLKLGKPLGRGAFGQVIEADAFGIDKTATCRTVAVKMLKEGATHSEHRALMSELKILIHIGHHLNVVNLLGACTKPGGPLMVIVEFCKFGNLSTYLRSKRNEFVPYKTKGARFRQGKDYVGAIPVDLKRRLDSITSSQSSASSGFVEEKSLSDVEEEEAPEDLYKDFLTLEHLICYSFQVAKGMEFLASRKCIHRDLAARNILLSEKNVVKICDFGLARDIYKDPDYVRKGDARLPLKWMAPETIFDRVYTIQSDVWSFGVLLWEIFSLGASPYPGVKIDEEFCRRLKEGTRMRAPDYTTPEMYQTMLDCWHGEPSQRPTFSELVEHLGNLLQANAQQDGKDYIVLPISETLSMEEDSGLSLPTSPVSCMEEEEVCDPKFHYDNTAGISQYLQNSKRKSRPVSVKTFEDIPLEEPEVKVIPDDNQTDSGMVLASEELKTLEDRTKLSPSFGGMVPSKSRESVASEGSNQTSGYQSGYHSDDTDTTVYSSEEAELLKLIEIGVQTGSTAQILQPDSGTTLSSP

On to `NC(=O)[C@@H]1[C@H](Nc2nc(Nc3cnn(Cc4ccccc4)c3)ncc2Cl)[C@H]2C=C[C@@H]1C2` [Example 144, (1S,2S,3R,4R)-3-({2-[(1-benzyl-1H-pyrazol-4-yl)amino]-5-chloropyrimidin-4-yl}amino)bicyclo[2.2.1]hept-5-ene-2-carboxamide], for which the Ki on Aurora A and on KDR was below 100 nM in each case.
For the compound `NC(=O)[C@@H]1[C@H](Nc2nc(Nc3cnn(CCc4ccccc4)c3)ncc2Br)[C@H]2C=C[C@@H]1C2` [Example 148, (1S,2S,3R,4R)-3-[(5-bromo-2-{[1-(2-phenylethyl)-1H-pyrazol-4-yl]amino}pyrimidin-4-yl)amino]bicyclo[2.2.1]hept-5-ene-2-carboxamide], the Ki at Aurora A and at KDR was below 100 nM in each case.
For `NC(=O)[C@@H]1[C@H](Nc2nc(Nc3cnn(Cc4ccccc4)c3)ncc2Br)[C@H]2C=C[C@@H]1C2` [Example 149, (1S,2S,3R,4R)-3-({2-[(1-benzyl-1H-pyrazol-4-yl)amino]-5-bromopyrimidin-4-yl}amino)bicyclo[2.2.1]hept-5-ene-2-carboxamide], the Ki at Aurora A and on KDR was below 100 nM in each case.
For `Cn1cc(Nc2ncc(C(F)(F)F)c(Nc3ccsc3C(N)=O)n2)cn1` [Example 150, 3-({2-[(1-methyl-1H-pyrazol-4-yl)amino]-5-(trifluoromethyl)pyrimidin-4-yl}amino)thiophene-2-carboxamide], the Ki on Aurora A and on KDR was below 100 nM in each case.
In the case of `COc1cccc(CCn2cc(Nc3ncc(Cl)c(N[C@H]4[C@@H](C(N)=O)[C@@H]5C=C[C@H]4C5)n3)cn2)c1` [Example 154, (1S,2S,3R,4R)-3-{[5-chloro-2-({1-[2-(3-methoxyphenyl)ethyl]-1H-pyrazol-4-yl}amino)pyrimidin-4-yl]amino}bicyclo[2.2.1]hept-5-ene-2-carboxamide], the Ki at Aurora A and on KDR was below 100 nM in each case.
`COc1cccc(Cn2cc(Nc3ncc(Cl)c(N[C@H]4[C@@H](C(N)=O)[C@@H]5C=C[C@H]4C5)n3)cn2)c1` [Example 155, (1S,2S,3R,4R)-3-[(5-chloro-2-{[1-(3-methoxybenzyl)-1H-pyrazol-4-yl]amino}pyrimidin-4-yl)amino]bicyclo[2.2.1]hept-5-ene-2-carboxamide]: the Ki on Aurora A and at KDR was below 100 nM each time.
For the compound `NC(=O)[C@@H]1[C@H](Nc2nc(Nc3cnn(Cc4cccc(Cl)c4)c3)ncc2Cl)[C@H]2C=C[C@@H]1C2` [Example 157, (1S,2S,3R,4R)-3-[(5-chloro-2-{[1-(3-chlorobenzyl)-1H-pyrazol-4-yl]amino}pyrimidin-4-yl)amino]bicyclo[2.2.1]hept-5-ene-2-carboxamide], the Ki on Aurora A and on KDR was below 100 nM throughout.
With `NC(=O)[C@@H]1[C@H](Nc2nc(Nc3cnn(CCc4cccc(Cl)c4)c3)ncc2Cl)[C@H]2C=C[C@@H]1C2` [Example 158, (1S,2S,3R,4R)-3-{[5-chloro-2-({1-[2-(3-chlorophenyl)ethyl]-1H-pyrazol-4-yl}amino)pyrimidin-4-yl]amino}bicyclo[2.2.1]hept-5-ene-2-carboxamide], the Ki on Aurora A and on KDR was below 100 nM throughout.
For `COc1cccc(Cn2cc(Nc3ncc(Br)c(N[C@H]4[C@@H](C(N)=O)[C@@H]5C=C[C@H]4C5)n3)cn2)c1` [Example 159, (1S,2S,3R,4R)-3-[(5-bromo-2-{[1-(3-methoxybenzyl)-1H-pyrazol-4-yl]amino}pyrimidin-4-yl)amino]bicyclo[2.2.1]hept-5-ene-2-carboxamide], the Ki on Aurora A and on KDR was below 100 nM in each case.
In the case of `COc1cccc(CCn2cc(Nc3ncc(Br)c(N[C@H]4[C@@H](C(N)=O)[C@@H]5C=C[C@H]4C5)n3)cn2)c1` [Example 160, (1S,2S,3R,4R)-3-{[5-bromo-2-({1-[2-(3-methoxyphenyl)ethyl]-1H-pyrazol-4-yl}amino)pyrimidin-4-yl]amino}bicyclo[2.2.1]hept-5-ene-2-carboxamide], the Ki at Aurora A and on KDR was below 100 nM throughout.
With `NC(=O)[C@@H]1[C@H](Nc2nc(Nc3cnn(Cc4ccccc4Cl)c3)ncc2Cl)[C@H]2C=C[C@@H]1C2` [Example 161, (1S,2S,3R,4R)-3-[(5-chloro-2-{[1-(2-chlorobenzyl)-1H-pyrazol-4-yl]amino}pyrimidin-4-yl)amino]bicyclo[2.2.1]hept-5-ene-2-carboxamide], the Ki at Aurora A and at KDR was below 100 nM in each case.
Take `NC(=O)[C@@H]1[C@H](Nc2nc(Nc3cnn(Cc4ccc(Cl)cc4)c3)ncc2Cl)[C@H]2C=C[C@@H]1C2` [Example 162, (1S,2S,3R,4R)-3-[(5-chloro-2-{[1-(4-chlorobenzyl)-1H-pyrazol-4-yl]amino}pyrimidin-4-yl)amino]bicyclo[2.2.1]hept-5-ene-2-carboxamide]: the Ki on Aurora A and on KDR was below 100 nM each time.
`Cn1cc(Nc2ncc(Cl)c(N[C@H]3[C@@H](C(N)=O)C[C@H]4C[C@@H]3C4(C)C)n2)cn1` [Example 165, (1R,2R,3S,5R)-2-({5-chloro-2-[(1-methyl-1H-pyrazol-4-yl)amino]pyrimidin-4-yl}amino)-6,6-dimethylbicyclo[3.1.1]heptane-3-carboxamide]: the Ki at Aurora A and at KDR was below 100 nM throughout.
Regarding `Cn1cc(Nc2ncc(C(F)(F)F)c(N[C@H]3[C@@H](C(N)=O)C[C@H]4C[C@@H]3C4(C)C)n2)cn1` [Example 167, (1R,2R,3S,5R)-6,6-dimethyl-2-({2-[(1-methyl-1H-pyrazol-4-yl)amino]-5-(trifluoromethyl)pyrimidin-4-yl}amino)bicyclo[3.1.1]heptane-3-carboxamide], the Ki on Aurora A and at KDR was below 100 nM in each case.
For the compound `CCn1cc(Nc2ncc(C(F)(F)F)c(N[C@H]3[C@@H](C(N)=O)C[C@H]4C[C@@H]3C4(C)C)n2)cn1` [Example 168, (1R,2R,3S,5R)-2-({2-[(1-ethyl-1H-pyrazol-4-yl)amino]-5-(trifluoromethyl)pyrimidin-4-yl}amino)-6,6-dimethylbicyclo[3.1.1]heptane-3-carboxamide], the Ki on Aurora A and on KDR was below 100 nM each time.
On to `Cc1c(Nc2ncc(Cl)c(N[C@H]3[C@@H](C(N)=O)[C@@H]4C=C[C@H]3C4)n2)cnn1C` [Example 169, (1S,2S,3R,4R)-3-({5-chloro-2-[(1,5-dimethyl-1H-pyrazol-4-yl)amino]pyrimidin-4-yl}amino)bicyclo[2.2.1]hept-5-ene-2-carboxamide], for which the Ki at Aurora A and on KDR was below 100 nM each time.
For the compound `Cc1c(Nc2ncc(Br)c(N[C@H]3[C@@H](C(N)=O)[C@@H]4C=C[C@H]3C4)n2)cnn1C` [Example 170, (1S,2S,3R,4R)-3-({5-bromo-2-[(1,5-dimethyl-1H-pyrazol-4-yl)amino]pyrimidin-4-yl}amino)bicyclo[2.2.1]hept-5-ene-2-carboxamide], the Ki at Aurora A and on KDR was below 100 nM throughout.
Turning to `NC(=O)[C@@H]1[C@H](Nc2nc(Nc3cnn(Cc4ccccc4Cl)c3)ncc2Br)[C@H]2C=C[C@@H]1C2` [Example 171, (1S,2S,3R,4R)-3-[(5-bromo-2-{[1-(2-chlorobenzyl)-1H-pyrazol-4-yl]amino}pyrimidin-4-yl)amino]bicyclo[2.2.1]hept-5-ene-2-carboxamide], the Ki on Aurora A and at KDR was below 100 nM throughout.
Consider `NC(=O)[C@@H]1[C@H](Nc2nc(Nc3cnn(Cc4ccc(Cl)cc4)c3)ncc2Br)[C@H]2C=C[C@@H]1C2` [Example 172, (1S,2S,3R,4R)-3-[(5-bromo-2-{[1-(4-chlorobenzyl)-1H-pyrazol-4-yl]amino}pyrimidin-4-yl)amino]bicyclo[2.2.1]hept-5-ene-2-carboxamide], for which the Ki on Aurora A and at KDR was below 100 nM throughout.
Regarding `NC(=O)[C@@H]1[C@H](Nc2nc(Nc3cnn(-c4ccccc4)c3)ncc2Br)[C@H]2C=C[C@@H]1C2` [Example 173, (1S,2S,3R,4R)-3-({5-bromo-2-[(1-phenyl-1H-pyrazol-4-yl)amino]pyrimidin-4-yl}amino)bicyclo[2.2.1]hept-5-ene-2-carboxamide], the Ki on Aurora A and at KDR was below 100 nM in each case.
Consider `NC(=O)[C@@H]1[C@H](Nc2nc(Nc3cnn(-c4ccccc4)c3)ncc2Cl)[C@H]2C=C[C@@H]1C2` [Example 174, (1S,2S,3R,4R)-3-({5-chloro-2-[(1-phenyl-1H-pyrazol-4-yl)amino]pyrimidin-4-yl}amino)bicyclo[2.2.1]hept-5-ene-2-carboxamide], for which the Ki on Aurora A and on KDR was below 100 nM each time.
For `Cc1cccc(Cn2cc(Nc3ncc(Cl)c(N[C@H]4[C@@H](C(N)=O)[C@@H]5C=C[C@H]4C5)n3)cn2)c1` [Example 178, (1S,2S,3R,4R)-3-[(5-chloro-2-{[1-(3-methylbenzyl)-1H-pyrazol-4-yl]amino}pyrimidin-4-yl)amino]bicyclo[2.2.1]hept-5-ene-2-carboxamide], the Ki at Aurora A and on KDR was below 100 nM each time.

Usually Ki stands for the dissociation constant of the complex between target and ligand, obtained from inhibition or displacement.
